Target: T1, human insulin (HI) (Homo sapiens, UniProt P01308)
T1 construct: gene INS; HI (Actrapid)
Test: Thioflavin-T fibrillation assay with insulin ([…] HCl, pH […] °C, […] h)
Type: biochemical

T1 sequence (P01308 25-54): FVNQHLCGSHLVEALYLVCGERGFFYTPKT
T1 sequence (P01308 90-110): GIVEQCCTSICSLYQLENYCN

COc1cc(/C=C/C(=O)CC(=O)/C=C/c2ccc(O)c(OC)c2)ccc1O [Curcumin]
EC50: 44.1 µM

Reference: publication PMC11720140, “Evaluation of the Anti-Amyloid and Anti-Inflammatory Properties of a Novel Vanadium(IV)–Curcumin Complex in Lipopolysaccharides-Stimulated Primary Rat Neuron-Microglia Mixed Cultures” (International Journal of Molecular Sciences, 2024)
